Measurements reported in ChEMBL document CHEMBL1201862, “PubChem BioAssay data set” (2004).
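Grown in 96-well plates, cells were treated for 48 hours with each compound at five concentrations. Insufficient inhibition: endpoint recorded as highest concentration tested. The concentration for 50% growth inhibition is given as GI50.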 Active and inactive are the calls of the source. Rule as the data show it: active = GI50 up to about 1.1 µM and inactive = higher.

What was measured:
Experiment in all cases: NCI-60 cell line screen, 48 h
PC-3 = system: PC-3
KM12 = system: KM12
MOLT-4 = system: MOLT-4
MDA-MB-231 = system: MDA-MB-231
MDA-N = system: MDA-N
SNB-75 = system: SNB-75
OVCAR-3 = system: OVCAR-3
MDA-MB-435 = system: MDA-MB-435
COLO 205 = system: COLO 205
CCRF-CEM = system: CCRF-CEM
A549 = system: A549
U-251 = system: U-251
SF-295 = system: SF-295
HOP-92 = system: HOP-92
SF-268 = system: SF-268
OVCAR-5 = system: OVCAR-5
TK-10 = system: TK-10
ACHN = system: ACHN
SR = system: SR
BT-549 = system: BT-549
UO-31 = system: UO-31
NCI-H23 = system: NCI-H23
SF-539 = system: SF-539
CAKI-1 = system: CAKI-1
SK-OV-3 = system: SK-OV-3
IGROV-1 = system: IGROV-1
NCI-H460 = system: NCI-H460
LOX IMVI = system: LOX IMVI
HCT-15 = system: HCT-15
Malme-3M = system: Malme-3M
NCI-H226 = system: NCI-H226
RXF 393 = system: RXF 393
M14 = system: M14
HCT-116 = system: HCT-116
OVCAR-8 = system: OVCAR-8
T47D = system: T47D
DU-145 = system: DU-145
K562 = system: K562
SW-620 = system: SW-620
SK-MEL-28 = system: SK-MEL-28
HT-29 = system: HT-29
HCC 2998 = system: HCC 2998
Hs-578T = system: Hs-578T
NCI/ADR-RES = system: NCI/ADR-RES
A498 = system: A498
SNB-19 = system: SNB-19
786-0 = system: 786-0
NCI-H522 = system: NCI-H522
SK-MEL-5 = system: SK-MEL-5
OVCAR-4 = system: OVCAR-4
HL-60 = system: HL-60
MCF7 = system: MCF7
UACC-62 = system: UACC-62
HOP-62 = system: HOP-62
UACC-257 = system: UACC-257
SN12C = system: SN12C
EKVX = system: EKVX
RPMI-8226 = system: RPMI-8226
SK-MEL-2 = system: SK-MEL-2

## Cn1c(Sc2ccc(-c3cccnc3)n2C)ccc1-c1cccnc1
PC-3
  GI50: 15500 nM (inactive)
KM12
  GI50: 18000 nM (inactive)
MOLT-4
  GI50: 353 nM (active)
MDA-MB-231
  GI50: 18200 nM (inactive)
MDA-N
  GI50: 8570 nM (inactive)
SNB-75
  GI50: 21800 nM (inactive)
OVCAR-3
  GI50: 11300 nM (inactive)
MDA-MB-435
  GI50: 13400 nM (inactive)
COLO 205
  GI50: 20000 nM (inactive)
CCRF-CEM
  GI50: 1960 nM (inactive)
A549
  GI50: 26400 nM (inactive)
U-251
  GI50: 13100 nM (inactive)
SF-295
  GI50: 16200 nM (inactive)
HOP-92
  GI50: 12900 nM (inactive)
SF-268
  GI50: 10700 nM (inactive)
OVCAR-5
  GI50: 22900 nM (inactive)
TK-10
  GI50: 17300 nM (inactive)
ACHN
  GI50: 20200 nM (inactive)
SR
  GI50: 2130 nM (inactive)
BT-549
  GI50: 20400 nM (inactive)
UO-31
  GI50: 17500 nM (inactive)
NCI-H23
  GI50: 16700 nM (inactive)
SF-539
  GI50: 20700 nM (inactive)
CAKI-1
  GI50: 19100 nM (inactive)
SK-OV-3
  GI50: 27700 nM (inactive)
IGROV-1
  GI50: 15000 nM (inactive)
NCI-H460
  GI50: 15200 nM (inactive)
LOX IMVI
  GI50: 3730 nM (inactive)
HCT-15
  GI50: 16800 nM
Malme-3M
  GI50: 11100 nM (inactive)
NCI-H226
  GI50: 24500 nM (inactive)
RXF 393
  GI50: 18500 nM (inactive)
M14
  GI50: 17100 nM (inactive)
HCT-116
  GI50: 8790 nM (inactive)
OVCAR-8
  GI50: 18100 nM (inactive)
T47D
  GI50: 16700 nM (inactive)
DU-145
  GI50: 18100 nM (inactive)
K562
  GI50: 3120 nM (inactive)
SW-620
  GI50: 6930 nM (inactive)
SK-MEL-28
  GI50: 10300 nM (inactive)
HT-29
  GI50: 23700 nM (inactive)
HCC 2998
  GI50: 20200 nM (inactive)
Hs-578T
  GI50: 3700 nM (inactive)
NCI/ADR-RES
  GI50: 21800 nM (inactive)
A498
  GI50: 20900 nM (inactive)
SNB-19
  GI50: 19600 nM (inactive)
786-0
  GI50: 11500 nM (inactive)
NCI-H522
  GI50: 10300 nM (inactive)
SK-MEL-5
  GI50: 16400 nM (inactive)
OVCAR-4
  GI50: 14600 nM (inactive)
HL-60
  GI50: 2390 nM (inactive)
MCF7
  GI50: 17700 nM (inactive)
UACC-62
  GI50: 14900 nM (inactive)
HOP-62
  GI50: 17600 nM (inactive)
UACC-257
  GI50: 12400 nM (inactive)
SN12C
  GI50: 16800 nM (inactive)
EKVX
  GI50: 24000 nM (inactive)
RPMI-8226
  GI50: 6650 nM (inactive)
SK-MEL-2
  GI50: 14200 nM (inactive)

## CC(O)c1cc2c(s1)C(=O)c1sccc1C2=O (stereo not drawn)
PC-3
  GI50: 289 nM (active)
KM12
  GI50: 234 nM (active)
MOLT-4
  GI50: 268 nM (active)
MDA-MB-231
  GI50: 172 nM (active)
MDA-N
  GI50: 19.8 nM (active)
SNB-75
  GI50: 90.2 nM (active)
OVCAR-3
  GI50: 187 nM (active)
MDA-MB-435
  GI50: 20.3 nM (active)
COLO 205
  GI50: 574 nM (active)
CCRF-CEM
  GI50: 334 nM (active)
A549
  GI50: 155 nM (active)
U-251
  GI50: 125 nM (active)
SF-295
  GI50: 79.2 nM (active)
HOP-92
  GI50: 386 nM (active)
SF-268
  GI50: 114 nM (active)
OVCAR-5
  GI50: 186 nM (active)
TK-10
  GI50: 213 nM (active)
ACHN
  GI50: 150 nM (active)
SR
  GI50: 80.3 nM (active)
BT-549
  GI50: 64.6 nM (active)
UO-31
  GI50: 185 nM (active)
NCI-H23
  GI50: 15.5 nM (active)
SF-539
  GI50: 40.1 nM (active)
CAKI-1
  GI50: 552 nM (active)
SK-OV-3
  GI50: 1490 nM (inactive)
IGROV-1
  GI50: 248 nM (active)
NCI-H460
  GI50: 127 nM (active)
LOX IMVI
  GI50: 24.7 nM (active)
HCT-15
  GI50: 45.4 nM
Malme-3M
  GI50: 21.5 nM (active)
NCI-H226
  GI50: 207 nM (active)
RXF 393
  GI50: 172 nM (active)
M14
  GI50: 18.5 nM (active)
HCT-116
  GI50: 151 nM (active)
OVCAR-8
  GI50: 191 nM (active)
T47D
  GI50: 329 nM (active)
DU-145
  GI50: 20.2 nM (active)
K562
  GI50: 353 nM (active)
SW-620
  GI50: 45.3 nM (active)
SK-MEL-28
  GI50: 47 nM (active)
HT-29
  GI50: 238 nM (active)
HCC 2998
  GI50: 202 nM (active)
Hs-578T
  GI50: 63.8 nM (active)
NCI/ADR-RES
  GI50: 178 nM (active)
A498
  GI50: 290 nM (active)
SNB-19
  GI50: 136 nM (active)
786-0
  GI50: 303 nM (active)
NCI-H522
  GI50: 148 nM (active)
SK-MEL-5
  GI50: 16.4 nM (active)
OVCAR-4
  GI50: 168 nM (active)
HL-60
  GI50: 85.9 nM (active)
MCF7
  GI50: 152 nM (active)
UACC-62
  GI50: 51.9 nM (active)
HOP-62
  GI50: 163 nM (active)
UACC-257
  GI50: 18.3 nM (active)
SN12C
  GI50: 112 nM (active)
EKVX
  GI50: 254 nM (active)
RPMI-8226
  GI50: 184 nM (active)
SK-MEL-2
  GI50: 41.5 nM (active)
